# Where “and” joins values, the source holds several entries; their conditions need not be identical. Identical values can stand only once. Like-named read-outs stand apart in the source and are kept apart here.
# Columns and labels:
# [1] = tested on: lignée tumorale leucémie L 1210; assay: In vitro cytotoxicity on L 1210 leukemia cell culture; assay type: cell-based; conditions: Mus musculus, L1210; concentration inhibiting cell proliferation by 50 p. 100, after 48 h contact; read-out: ID 50 (the source's name)
# Protocol: 1) In vitro : (PAOLETTI et al., Chem. Biol. Interaction, 1979, 25, 45-58).
# L'activité cytotoxique des composés de l'invention a été évaluée par des essais in vitro. Ces essais consistent à ajouter des concentrations croissantes du composé à tester à une culture cellulaire de la lignée tumorale leucémie L 1210 en phase exponentielle de croissance. Les cellules sont incubées à 37°C dans une étuve à C02 et comptées toutes les 24 heures. Le calcul de l'ID 50 (concentration du produit exprimée en micromole 1^-1 qui inhibe la prolifération cellulaire à 50 p. 100) est effectué après 48 heures de contact. Ainsi déterminées, les ID 50 des composés de l'invention sont rassemblées dans le tableau I ci-après : […]
# réticulosarcome M5-M5076 = assay: M5-M5076 reticulosarcoma test in vivo; design: species or system souris hybrides BDF1; conditions: 160 mg/kg i.p. J1, 5, 9, 13, 17
# Source text: (§1) L'activité antitumorale a été testée in vivo sur différentes tumeurs selon le protocole général suivant : Toutes les souris mâles ou femelles sont inoculées par voie intrapéritonéale au jour Jo avec une quantité déterminée de cellules tumorales viables, variable selon la tumeur.
# (§2) Elles sont ensuite réparties en différents lots. Chaque lot correspondant aux animaux traités par le produit à tester à une dose déterminée est composé de lO souris. Dans ce cas, le produit à tester est dissous dans l'eau distillée et il est administré, pendant n jours (J1-Jn) variables selon le protocole choisi, par voie intrapéritonéale à raison de 0,1 ml par lO g de poids des souris traitées, les doses du produit administré étant précisées dans les tableaux ci-dessous.
# (§3) Le lot "Contrôle négatif", correspondant aux animaux qui ne sont pas traités par un produit, comprend 2 √N animaux, N étant égal au nombre total de souris traitées par un produit.
# (§4) Enfin, tous lés essais sont conduits parallèlement à l'étude d'un lot appelé "Contrôle positif" de 10 animaux qui est traité par une molécule active, variable selon le protocole choisi, dans les mêmes conditions que les lots traités par le produit à tester, afin de valider l'essai.
# (§5) L'activité antitumorale est évaluée en considérant l'augmentation du temps de survie des animaux traités par rapport à celui des animaux du lot "Contrôle négatif" selon la formule : • Jour médian de survie des animaux traités à une T/C = dose donnée de produit x 100 • Jour médian de survie des animaux "Contrôle négatif"
# (§6) Un composé est considéré comme étant actif lorsque la valeur du rapport T/C est égale ou supérieure à 125 % selon le protocole retenu. Il est toxique lorsque cette valeur est égale ou inférieure à 85 %. Le produit est également considéré comme toxique lorsque la variation pondérale, exprimée en grammes et calculée par la formule : Poids moyen du lot mesuré au jour 5 - poids moyen du même lot au jour 1, est égale ou inférieure à -4g . a) Test de la leucémie P 388 (GERAN et al., Cancer Chemother, 1972, 2, 07-57).
# d) Test du réticulosarcome M5-M5076.
# Les essais sont effectués avec des souris hybrides BDF1 inoculées avec 10^6 cellules de la lignée M5-M5076. Le composé à tester est administré 5 fois successivement de façon séquentielle (Jl, 5, 9, 13, 17). Le contrôle positif du test est le cyclophosphamide administré dans les mêmes conditions. Le nombre d'animaux survivants est évalué au jour J 75. Un composé est considéré comme actif lorsque le rapport T/C est supérieur ou égal à 125 %.
# mélanome B 16 = assay: B 16 melanoma test in vivo; design: species or system souris hybrides BDF1; Jour médian de survie: unit not given here; conditions: for Survivants: at day J 60
# Source text: as §1, §2, §3, §4, §5, §6
# c) Test du mélanome B 16 (GERAN et al., Cancer Chemother, 1972, 2, 07-57).
# Les essais sont effectués avec des souris hybrides BDF1 inoculées avec O,5 ml d'un homogénat de mélanome B 16 réalisé à partir de 1 g de tumeur dans 10 ml de sérum physiologique. Le composé à tester est administré pendant 9 jours (J1-J9). Le contrôle positif du test est le Cis- platine administré dans les mêmes conditions. Le nombre d'animaux survivants est évalué au jour J 60. Un composé est considéré comme étant actif lorsque le rapport T/C est supérieur ou égal à 125 %.
# in vivo = assay: in vivo; design: species or system souris; conditions: mouse, ip
# Protocol: Ainsi, l'administration à des souris hybrides CDF1 saines, en une injection unique par la voie intrapéritonéale, de doses croissantes des composés à tester (5 mg, 10 mg, 20 mg, 40 mg/kg) a permis de constater que, à ces doses, les produits étaient parfaitement tolérés puisque le taux de survivants était de 100 p. 100.
# Dans les mêmes conditions, administrés à des souris BDF1 saines, les taux de survivants étaient de 100 p. 100 jusqu'à 100 mg/kg pour les dérivés 1, 3 et 9 et jusqu'à 200 mg/kg pour les dérivés 2 et 8.
# leucémie P 388 = assay type: in vivo, souris hybrides CDF1
# Source text: as §1, §2, §3, §4, §5, §6
# Les essais sont effectués avec des souris hybrides CDF1 inoculées par voie intrapéritonéale avec […] leucémiques de la lignée P 388. Le composé à tester est administré pendant 5 jours (Jl-J5). Le contrôle positif du test est le 5-fluorouracile qui est administré dans les mêmes conditions.
# […] Un composé est considéré comme étant actif lorsque le rapport T/C est supérieur à 127 %.
# leucémie L 1210 = assay: L 1210 leukemia test in vivo; design: species or system souris hybrides CDF1; conditions: 20 mg/kg i.p. J1-J5
# Source text: as §1, §2, §3, §4, §5, §6
# b) Test de la leucémie L 1210 (GERAN et al., Cancer Chemother, 1972, 2, 07-57).
# Les essais sont effectués avec des souris hybrides CDF1 inoculées avec 10^5 cellules leucémiques de la lignée L 1210. Le composé à tester est administré pendant 5 jours (J1-J5). Le contrôle positif du test est le 5-fluorouracile administré dans les mêmes conditions. Le nombre d'animaux survivants est évalué au jour J 60. Un composé est considéré comme étant actif lorsque le rapport T/C est supérieur ou égal à 125 %.
# [2] = 5 mg/kg i.p. J1-J5, at day J 40
# [3] = 10 mg/kg i.p. J1-J5, at day J 40
# [4] = 20 mg/kg i.p. J1-J5, at day J 40
# [5] = 40 mg/kg i.p. J1-J5, at day J 40
# [6] = 80 mg/kg i.p. J1-J5, at day J 40
compound,measurement,setting,value
"CCCN(CCC)CCCNc1ncc(C)c2[nH]c3ccncc3c12 [Dérivé N° 12, [(dipropylamino-3 propyl-1)amino]-1 méthyl-4 5-H pyrido[3',4':4,5]pyrrolo[3,2-c]pyridine]",IC50,[1],8500 nM
"CCCN(CCC)CCCNc1ncc(C)c2c1c1cnccc1n2C [Dérivé N° 13, diméthyl-4,5[(dipropylamino-3 propyl-1)ami-no]-l 5-H pyrido[3',4':4,5]pyrrolo[3,2-c]pyridine]",IC50,[1],3200 nM
"O=P1(N(CCCl)CCCl)NCCCO1 (centres unmarked) [Cyclophosphamide, cyclophosphamide, reference compound]",Jour médian de survie,réticulosarcome M5-M5076,> 60 and > 71
same,T/C %,réticulosarcome M5-M5076,>229% and >246%
same,Survivants,réticulosarcome M5-M5076; at day J 75,9 and 6
"[NH2][Pt]([NH2])([Cl])[Cl] [Cis-platine, reference compound]",Jour médian de survie,"mélanome B 16; 0,5 mg/kg i.p. J1-J9","30 and 31,0 and 40,0"
same,T/C %,"mélanome B 16; 0,5 mg/kg i.p. J1-J9",126% and 133% and 141%
same,Survivants,"mélanome B 16; 0,5 mg/kg i.p. J1-J9",0
"CCN(CC)CCCNc1ncc(C)c2c1c1cnccc1n2CC [Dérivé N° 5, [(diéthylamino-3 propyl-1)amino]-1 méthyl-4 éthyl-5 5-H pyrido[3',4':4,5]pyrrolo[3,2-c]pyridine]",IC50,[1],1400 nM
"Cc1cnc(NCCNCCO)c2c1[nH]c1ccncc12 [Dérivé N° 2, [[[(hydroxy-2 éthyl-l)amino]-2 éthyl-1]-amino]-1 méthyl-4 5-H pyrido[3',4':4,5]pyrrolo[3,2-c]pyridine]",survival,in vivo; 200 mg/kg,100%
"Cc1cnc(NCCCN(C)C)c2c1[nH]c1ccncc12 [Dérivé N° 3 bis, [(diméthylamino-3 propyl-1)amino]-1 méthyl-4 5-H pyrido[3',4':4,5]pyrrolo[3,2-c]pyridine]",Jour médian de survie,leucémie P 388; 5 mg/kg i.p. J1-J5,"15,83"
same,T/C %,leucémie P 388; 5 mg/kg i.p. J1-J5,145%
same,Survivants,leucémie P 388; [2],0/10
same,Jour médian de survie,leucémie P 388; 10 mg/kg i.p. J1-J5,"17,13"
same,T/C %,leucémie P 388; 10 mg/kg i.p. J1-J5,156%
same,Survivants,leucémie P 388; [3],0/10
same,Jour médian de survie,leucémie P 388; 20 mg/kg i.p. J1-J5,"20,33"
same,T/C %,leucémie P 388; 20 mg/kg i.p. J1-J5,186%
same,Survivants,leucémie P 388; [4],0/10
same,Jour médian de survie,leucémie P 388; 40 mg/kg i.p. J1-J5,"20,25"
same,T/C %,leucémie P 388; 40 mg/kg i.p. J1-J5,184%
same,Survivants,leucémie P 388; [5],0/10
same,Jour médian de survie,leucémie P 388; 50 mg/kg i.p. J1-J5,22
same,T/C %,leucémie P 388; 50 mg/kg i.p. J1-J5,181%
same,Survivants,"leucémie P 388; 50 mg/kg i.p. J1-J5, à J 42",1/10 à J 42
same,Jour médian de survie,leucémie P 388; 80 mg/kg i.p. J1-J5,"19,88"
same,T/C %,leucémie P 388; 80 mg/kg i.p. J1-J5,181%
same,Survivants,leucémie P 388; [6],0/10
same,IC50,[1],160 nM
"O=c1[nH]cc(F)c(=O)[nH]1 [Fluorouracile, 5-fluorouracile, reference compound]",Jour médian de survie,leucémie L 1210,"16,0 and 18"
same,T/C %,leucémie L 1210,178% and 195%
same,Survivants,leucémie L 1210; at day J 60,0
same,Survivants,leucémie P 388; [4],0/10 and 0
"CCN(CC)CCCNc1ncc(C)c2[nH]c3ccncc3c12 [Dérivé N° 1, [(diéthylamino-3 propyl-1)amino]-1 méthyl-4 5-H pyrido[3',4':4,5]pyrrolo[3,2-c]pyridine]",Jour médian de survie,mélanome B 16; 5 mg/kg i.p. J1-J9,"28,25"
same,T/C %,mélanome B 16; 5 mg/kg i.p. J1-J9,119%
same,Survivants,mélanome B 16; 5 mg/kg i.p. J1-J9,0
same,Jour médian de survie,mélanome B 16; 10 mg/kg i.p. J1-J9,"30,0"
same,T/C %,mélanome B 16; 10 mg/kg i.p. J1-J9,126%
same,Survivants,mélanome B 16; 10 mg/kg i.p. J1-J9,0
same,Jour médian de survie,mélanome B 16; 20 mg/kg i.p. J1-J9,"34,25"
same,T/C %,mélanome B 16; 20 mg/kg i.p. J1-J9,144%
same,Survivants,mélanome B 16; 20 mg/kg i.p. J1-J9,0
same,survival,in vivo; 100 mg/kg,100%
same,Jour médian de survie,leucémie P 388; 5 mg/kg i.p. J1-J5,"14,1"
same,T/C %,leucémie P 388; 5 mg/kg i.p. J1-J5,132%
same,Survivants,leucémie P 388; [2],0/10
same,Jour médian de survie,leucémie P 388; 10 mg/kg i.p. J1-J5,"14,6"
same,T/C %,leucémie P 388; 10 mg/kg i.p. J1-J5,136%
same,Survivants,leucémie P 388; [3],0/10
same,Jour médian de survie,leucémie P 388; 20 mg/kg i.p. J1-J5,"15,9"
same,T/C %,leucémie P 388; 20 mg/kg i.p. J1-J5,148%
same,Survivants,leucémie P 388; [4],0/10
same,Jour médian de survie,leucémie P 388; 40 mg/kg i.p. J1-J5,"16,6"
same,T/C %,leucémie P 388; 40 mg/kg i.p. J1-J5,155%
same,Survivants,leucémie P 388; [5],0/10
same,Jour médian de survie,leucémie P 388; 50 mg/kg i.p. J1-J5,"3,1"
same,T/C %,leucémie P 388; 50 mg/kg i.p. J1-J5,26%
same,Survivants,"leucémie P 388; 50 mg/kg i.p. J1-J5, at day J 40",0/10
same,IC50,[1],340 nM
"Cc1cnc(NCCCN(C)C)c2c3cnccc3n(C)c12 [Dérivé N° 9, diméthyl-4,5 [(diméthylamino-3 propyl-1)-amino]-1 5-H pyrido[3',4':4,5]pyrrolo[3,2-c]pyridine]",survival,in vivo; 100 mg/kg,100%
same,Jour médian de survie,leucémie P 388; 5 mg/kg i.p. J1-J5,"15,75"
same,T/C %,leucémie P 388; 5 mg/kg i.p. J1-J5,136%
same,Survivants,leucémie P 388; [2],0
same,Jour médian de survie,leucémie P 388; 10 mg/kg i.p. J1-J5,"17,38"
same,T/C %,leucémie P 388; 10 mg/kg i.p. J1-J5,150%
same,Survivants,leucémie P 388; [3],0
same,Jour médian de survie,leucémie P 388; 20 mg/kg i.p. J1-J5,"19,33"
same,T/C %,leucémie P 388; 20 mg/kg i.p. J1-J5,167%
same,Survivants,leucémie P 388; [4],0
same,Jour médian de survie,leucémie P 388; 40 mg/kg i.p. J1-J5,"20,0"
same,T/C %,leucémie P 388; 40 mg/kg i.p. J1-J5,173%
same,Survivants,leucémie P 388; [5],0
same,Jour médian de survie,leucémie P 388; 80 mg/kg i.p. J1-J5,"8,25"
same,T/C %,leucémie P 388; 80 mg/kg i.p. J1-J5,71%
same,Survivants,leucémie P 388; [6],0
same,IC50,[1],300 nM
"CCN(CC)CCCCNc1ncc(C)c2c1c1cnccc1n2C [Dérivé N° 10, [(diéthylamino-4 butyl-1)amino]-1 diméthyl-4,5 5-H pyrido[3',4':4,5]pyrrolo[3,2-c]pyridine]",IC50,[1],2000 nM

# Source: patent EP0197829A1, “5H-pyrido[3',4':4,5]pyrrolo[3,2-c]pyridine derivatives, process for their preparation and their antitunour activity” (SANOFI, priority 1985, dated 1986)
